For orientation: inhibition means the share of the control response that was lost under treatment.

The source of these data is patent publication US12404268B2, “2-heteroaryl aminoquinazolinone derivative” (Sumitomo Pharma Co., Ltd., priority 2020, dated 2025).

The assay deals with neurons induced to differentiate from SCN1A gene deficient human iPS cells. The assay is described as follows: Test for measuring hyperexcitation suppression activity (spontaneous calcium oscillation frequency). It counts as cell-based. The following applies: Homo sapiens, Neuron, read-out: inhibition rate. The text has this: Test for Measuring Hyperexcitation Suppression Activity Using Neurons Induced to Differentiate from SCN1A Gene Deficient Human iPS Cells
(1) Induction of Differentiation from Human iPS cells to Neurons
Half of the culture solution was exchanged once every 3 to 4 days.
(2) Fluorescent Calcium Probe Treatment, Addition of Compound, and Evaluation of Intracellular Calcium Concentration
Half of the culture solution was removed on day 60 from induction of differentiation or thereafter. A medium for measurement comprising a fluorescent calcium probe (Molecular Device, product name: FLIPR Calcium 6 Assay Bulk Kit, cat #R8191) was added at an amount equal to the remaining medium. The culture was left standing for 30 minutes and subjected to measurement.
The test compounds were serially diluted with a dimethyl sulfoxide (DMSO) solution so that the final concentration would be 0.1 to 100 μM to prepare a concentrate with a concentration that is 6-fold of the final concentration.
The intensity of fluorescence of a calcium probe was measured over time with FDSS7000EX (Hamamatsu Photonics) to evaluate the change in intracellular calcium concentrations. First, the intensity of fluorescence was measured for 2 minutes. The compound solutions were then added using FDSS7000EX for an additional 8 minute measurement of fluorescence intensity. The frequency of spontaneous calcium oscillation was quantified as an indicator of nerve excitation. With the frequency for 2 minutes before the addition of the compound solutions as 100%, the ratio of frequency for the last 2 minutes after addition of the compound solutions was calculated.

The structures appear in SMILES notation.

For `O=c1c2ccccc2nc(Nc2ccn3ccnc3c2)n1-c1ccccc1` [Example 70], the inhibition at 1 µM stood at 58%. The same measure, in the same setting: under `CN1CCC[C@H](n2c(Nc3cccnc3)nc3ccccc3c2=O)C1` [Example 71] stands 51%. On to `O=c1c2cc(F)ccc2nc(Nc2cccnc2)n1C12CCN(CC1)CC2` [Example 72], for which the inhibition at 10 µM was 100%.

With `C[C@]1(N)CC[C@H](n2c(Nc3cccnc3)nc3ccccc3c2=O)CC1` [Example 73], the inhibition at 1 µM turned out to be 86%. For `C[C@]1(N)CC[C@@H](n2c(Nc3cccnc3)nc3ccccc3c2=O)CC1` [Example 74], the inhibition at 10 µM turned out to be 100%.

In the case of `CN1CCC[C@@H](n2c(Nc3cccnc3)nc3ccccc3c2=O)C1` [Example 75], the inhibition at 10 µM is 100%. `CN1[C@@H]2CC[C@H]1C[C@H](n1c(Nc3cccnc3)nc3ccccc3c1=O)C2` [Example 76]: the inhibition at 1 µM was 35%. Turning to `CN1CC[C@H](n2c(Nc3cccnc3)nc3ccccc3c2=O)C1` [Example 77], the inhibition at 10 µM was 26%.

Turning to `CN1CCC(n2c(Nc3cccnc3)nc3ccccc3c2=O)CC1` [Example 78], the inhibition at 10 µM was 100%. In the case of `CN1[C@@H]2CC[C@H]1C[C@@H](n1c(Nc3cccnc3)nc3ccccc3c1=O)C2` [Example 79], the inhibition at 1 µM worked out at 47%. As to `CN1[C@@H]2CC[C@H]1C[C@@H](n1c(Nc3cccnc3)nc3ccc(F)cc3c1=O)C2` [Example 80], the inhibition at 10 µM came to 49%. Same read-out and setting: the figure for `CN1CCC[C@H](n2c(Nc3cccnc3)nc3ccc(F)cc3c2=O)C1` [Example 81] is 35%; for `CN1CC[C@H](n2c(Nc3cccnc3)nc3ccc(F)cc3c2=O)C1` [Example 82] it is 17%; for `CN1CC2(CC(n3c(Nc4cccnc4)nc4ccccc4c3=O)C2)C1` [Example 83] it is 96%. Same read-out and setting: under `C[C@]1(N)CC[C@H](n2c(Nc3cccnc3)nc3ccc(F)cc3c2=O)CC1` [Example 84] stands 96%. With `CN1[C@@H]2CC[C@H]1C[C@H](n1c(Nc3cccnc3)nc3ccc(F)cc3c1=O)C2` [Example 85], the inhibition at 10 µM came to 59%. Take `Cc1ccc2c(=O)n(-c3ccccc3)c(Nc3cccnc3)nc2c1` [Example 86]: the inhibition at 100 µM is 31%. For `N#Cc1ccc2nc(Nc3ccccn3)n(-c3ccccc3)c(=O)c2c1` [Example 88], the inhibition at 10 µM worked out at 95%.

On to `C[C@]1(N)CC[C@@H](n2c(Nc3cccnc3)nc3ccc(F)cc3c2=O)CC1` [Example 89], for which the inhibition at 1 µM is 20%. With `COc1cccc2nc(Nc3cccnc3)n(-c3ccccc3)c(=O)c12` [Example 92], the inhibition at 100 µM turned out to be 38%. Turning to `Cn1cnc2c(Nc3nc4ccccc4c(=O)n3-c3ccccc3)cccc21` [Example 93], the inhibition at 10 µM turned out to be 53%. As for `O=c1c2ccccc2nc(Nc2ccc3cnoc3c2)n1-c1ccccc1` [Example 94], the inhibition at 1 µM was determined as 27%. Turning to `CN1CC[C@@H](n2c(Nc3cccnc3)nc3ccccc3c2=O)C1` [Example 96], the inhibition at 100 µM was 100%.

Regarding `CN1CC[C@@H](n2c(Nc3cccnc3)nc3ccc(F)cc3c2=O)C1` [Example 97], the inhibition at 100 µM was determined as 100%.

As to `O=c1c2ccccc2nc(Nc2ccc3ncoc3c2)n1-c1ccccc1` [Example 98], the inhibition at 1 µM stood at 51%. Regarding `O=c1c2ccccc2nc(Nc2cccc3ocnc23)n1-c1ccccc1` [Example 99], the inhibition at 10 µM amounted to 94%.

Take `CN1CCC[C@@H](n2c(Nc3cccnc3)nc3ccc(F)cc3c2=O)C1` [Example 100]: the inhibition at 10 µM is 100%. For `CN1CCC(n2c(Nc3cccnc3)nc3ccc(F)cc3c2=O)CC1` [Example 101], the inhibition at 10 µM amounted to 6%. For the compound `COc1ccc(-n2c(Nc3cccnc3)nc3ccc(C#N)cc3c2=O)c(C)c1` [Example 102, 3-(4-methoxy-2-methylphenyl)-4-oxo-2-(pyridin-3-ylamino)-3,4-dihydroquinazoline-6-carbonitrile], the inhibition at 10 µM stood at 92%. On to `Cc1ccc(-n2c(Nc3cccnc3)nc3ccc(C#N)cc3c2=O)c(Cl)c1` [Example 103], for which the inhibition at 1 µM worked out at 84%. `Cc1ccc(F)cc1-n1c(Nc2cccnc2)nc2ccc(C#N)cc2c1=O` [Example 104, 3-(5-fluoro-2-methylphenyl)-4-oxo-2-(pyridin-3-ylamino)-3,4-dihydroquinazoline-6-carbonitrile]: the inhibition at 0.1 µM turned out to be 29%. With `Cc1ccc(-n2c(Nc3cccnc3)nc3ccc(F)cc3c2=O)cc1` [Example 105, 6-fluoro-2-(pyridin-3-ylamino)-3-(p-tolyl)quinazolin-4(3H)-one], the inhibition at 1 µM was 100%. Consider `Cc1cccc(-n2c(Nc3cccnc3)nc3ccc(F)cc3c2=O)c1` [Example 106], for which the inhibition at 0.1 µM was determined as 17%. `Cc1ccccc1-n1c(Nc2cccnc2)nc2ccc(F)cc2c1=O` [Example 107, 6-fluoro-2-(pyridin-3-ylamino)-3-(o-tolyl)quinazolin-4(3H)-one]: the inhibition at 0.1 µM was 89%. The same measure, in the same setting: under `O=c1c2cc(F)ccc2nc(Nc2cccnc2)n1-c1ccccc1F` [Example 108, 6-fluoro-3-(2-fluorophenyl)-2-(pyridin-3-ylamino)quinazolin-4(3H)-one] stands 62%. As for `N#Cc1ccc2nc(Nc3cccnc3)n(-c3ccccc3F)c(=O)c2c1` [Example 110], the inhibition at 1 µM came to 66%.

As to `O=c1c2cc(F)ccc2nc(Nc2cncc(F)c2)n1-c1ccccc1F` [Example 111, 6-fluoro-3-(2-fluorophenyl)-2-((5-fluoropyridin-3-yl)amino)quinazolin-4(3H)-one], the inhibition at 0.1 µM stood at 35%. Take `N#Cc1ccc2nc(Nc3cncc(F)c3)n(-c3ccccc3)c(=O)c2c1` [Example 112, 2-((5-fluoropyridin-3-yl)amino)-4-oxo-3-phenyl-3,4-dihydroquinazoline-6-carbonitrile]: the inhibition at 0.1 µM was 32%. As to `N#Cc1ccc2nc(Nc3cncc(F)c3)n(-c3ccccc3F)c(=O)c2c1` [Example 113, 3-(2-fluorophenyl)-2-((5-fluoropyridin-3-yl)amino)-4-oxo-3,4-dihydroquinazoline-6-carbonitrile], the inhibition at 1 µM worked out at 91%. Still for that read-out and setting: under `O=c1c2cccc(F)c2nc(Nc2cccnc2)n1-c1ccccc1` [Example 115] stands 81%. Regarding `COc1cccc2c(=O)n(-c3ccccc3)c(Nc3cccnc3)nc12` [Example 116], the inhibition at 100 µM is 59%. Still for that read-out and setting: under `O=c1c2c(F)cccc2nc(Nc2cncc(F)c2)n1-c1ccccc1` [Example 117] stands 71%. `O=c1c2ccccc2nc(Nc2cccnc2)n1C12CCN(CC1)CC2` [Example 119]: the inhibition at 1 µM was found to be 20%. `Cc1ccccc1-n1c(Nc2cccnc2)nc2cccc(F)c2c1=O` [Example 120]: the inhibition at 1 µM is 69%. The same measure, in the same setting: under `Cc1ccccc1-n1c(Nc2cccnc2)nc2cc(F)ccc2c1=O` [Example 121] stands 28%; under `Cc1ccccc1-n1c(Nc2cccnc2)nc2c(F)cccc2c1=O` [Example 122], 61%; under `O=c1c2cc(F)ccc2nc(Nc2cccnc2)n1-c1cccc(F)c1` [Example 123], 56%. The same measure, in the same setting: the figure for `O=c1c2cc(F)ccc2nc(Nc2cccnc2)n1-c1ccc(F)cc1` [Example 124] is 32%; for `Cc1ccnc(Nc2nc3ccc(F)cc3c(=O)n2-c2ccccc2)c1` [Example 125] it is 29%.
